# Source: ChEMBL document CHEMBL5321275, “Discovery, Optimization, and Evaluation of Novel N-(Benzimidazol-5-yl)-1,3,4-thiadiazol-2-amine Analogues as Potent STAT3 Inhibitors for Cancer Treatment” (J Med Chem, 2023)
# Key:
# HEK-Blue IL-6 = assay: Inhibition of IL-6/JAK/STAT3 signalling pathway in HEK-Blue IL-6 cells at 10 uM incubated for 16 hrs by QUANTI-blue assay relative to control; assay type: cell-based; conditions: Homo sapiens
# [1] = Inhibition of IL-6/JAK/STAT3 signalling pathway in HEK-Blue IL-6 cells incubated for 16 hrs by QUANTI-blue assay; assay type: cell-based; conditions: Homo sapiens, HEK-Blue IL-6, 16 h
# DU-145 [2] = assay: Antiproliferative activity against human DU-145 cells assessed as inhibition of cell growth at 10 uM measured after 96 hrs by MTT assay relative to control; assay type: functional
# DU-145 [3] = assay: Antiproliferative activity against human DU-145 cells assessed as inhibition of cell growth measured after 96 hrs by MTT assay; assay type: functional, cell-based; conditions: DU-145, 96 h
# MDA-MB-231 [4] = assay: Antiproliferative activity against human MDA-MB-231 cells assessed as inhibition of cell growth at 10 uM measured after 96 hrs by MTT assay relative to control; assay type: functional
# MDA-MB-231 [5] = assay: Antiproliferative activity against human MDA-MB-231 cells assessed as inhibition of cell growth measured after 96 hrs by MTT assay; assay type: functional, cell-based; conditions: MDA-MB-231, 96 h
# [6] = Metabolic stability in human liver microsomes at 10 uM measured after 120 mins in presence of NADPH-GS by HPLC-MS/MS analysis; assay type: ADME, Microsome; conditions: read-out: Stability
# [7] = Metabolic stability in mouse liver microsomes assessed as half life in presence of NADPH/UDPGA; assay type: ADME, Microsome
# [8] = Metabolic stability in mouse liver microsomes assessed as intrinsic clearance in presence of NADPH/UDPGA; assay type: ADME, Microsome; conditions: read-out: CLH
# [9] = Solubility of compound in water incubated for 10 mins; assay type: physicochemical
IC50 [1] [nM],IC50 (DU-145 [3]) [nM],IC50 (MDA-MB-231 [5]) [nM],"remaining at 2 h, 10 µM [6] [%]",half-life [7] [min],microsomal CLint [8] [µL/min/mg],solubility at 10 min [9] [µg/mL],SMILES,inhibition (HEK-Blue IL-6) [%],inhibition at 10 µM (DU-145 [2]) [%],inhibition at 10 µM (MDA-MB-231 [4]) [%]
2380,4420,800,25,–,–,–,CCCn1c(-c2ccc(F)cc2)nc2cc(Nc3nnc(-c4cc(OC)c(OC)c(OC)c4)s3)c(N3CCN(C)CC3)cc21,108,80.7,94.5
–,–,–,–,1.54,902,–,O=c1ccc2ccc(O)cc2o1 [UMBELLIFERONE],–,–,–
4510,1050,820,32.5,–,–,5.95,COc1cc(-c2nnc(Nc3cc4nc(-c5ccc(F)cc5)n(C5CC5)c4cc3N3CCN(C)CC3)s2)cc(OC)c1OC,95.7,87.3,92.5
1960,4340,3330,–,–,–,–,CCCn1c(-c2ccc(F)cc2)nc2cc(Nc3nnc(-c4cccc(F)c4)s3)c(N3CCN(C)CC3)cc21,85.3,78.9,94.7
